Results reported in PubChem BioAssay (NCI).
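Briefly, cells in 96-well plates were exposed to five compound concentrations for 48 h, and endpoints were estimated by linear interpolation. The concentration for 50% growth inhibition is given as GI50. TGI marks complete inhibition of growth.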

Legend:
Test in all cases: NCI anticancer screen, dose series, 48 h
OVCAR-4 ovarian = test system: OVCAR-4 ovarian
U251 CNS = test system: U251 CNS
HCT-15 colon = test system: HCT-15 colon
SK-OV-3 ovarian = test system: SK-OV-3 ovarian
SK-MEL-2 melanoma = test system: SK-MEL-2 melanoma
A549 NSCLC = test system: A549 NSCLC
A498 renal = test system: A498 renal
SW-620 colon = test system: SW-620 colon
RPMI-8226 leukemia = test system: RPMI-8226 leukemia
K-562 leukemia = test system: K-562 leukemia

CN(CCO)/N=N/c1nc[nH]c1C(N)=O was tested, and the TGI (OVCAR-4 ovarian) was > 100 µM, the TGI (U251 CNS) was > 100 µM and the TGI (HCT-15 colon) was > 100 µM. For the same molecule, the TGI (SK-OV-3 ovarian) was > 100 µM, the TGI (SK-MEL-2 melanoma) was > 100 µM and the TGI (A549 NSCLC) was > 100 µM. The TGI (A498 renal) was > 100 µM, the TGI (SW-620 colon) was > 100 µM and the TGI (RPMI-8226 leukemia) was > 100 µM.
With CCOC(=O)/C(=N/Nc1ccc(Cl)cc1)N1C(=S)C=C(C)NN(C)C1=S the TGI (OVCAR-4 ovarian) was > 100 µM, the TGI (U251 CNS) was 39.5 µM and the TGI (K-562 leukemia) was > 100 µM. The TGI (HCT-15 colon) was > 100 µM, the TGI (SK-OV-3 ovarian) was > 100 µM and the TGI (SK-MEL-2 melanoma) was > 100 µM. For the same molecule, the TGI (A549 NSCLC) was > 100 µM, the TGI (SW-620 colon) was > 100 µM and the TGI (RPMI-8226 leukemia) was > 100 µM.
For C/C(=N\NC(=S)Nc1ccc(Cl)cc1)c1nc2ncccc2[nH]1, the TGI (OVCAR-4 ovarian) was 41.4 µM, the TGI (U251 CNS) was 14.5 µM and the TGI (K-562 leukemia) was 44.2 µM. The TGI (HCT-15 colon) was 14.5 µM, the TGI (SK-OV-3 ovarian) was 60.8 µM and the TGI (SK-MEL-2 melanoma) was 22.5 µM. The TGI (A549 NSCLC) was > 100 µM, the TGI (A498 renal) was 20.2 µM and the TGI (SW-620 colon) was 35.5 µM. For the same molecule, the TGI (RPMI-8226 leukemia) was > 100 µM.
With Cc1ncc(CO)c(C=NCCCCCCN=Cc2c(CO)cnc(C)c2O)c1O the TGI (OVCAR-4 ovarian) was > 100 µM, the TGI (U251 CNS) was > 100 µM and the TGI (K-562 leukemia) was > 100 µM. The TGI (HCT-15 colon) was > 100 µM, the TGI (SK-OV-3 ovarian) was > 100 µM and the TGI (SK-MEL-2 melanoma) was > 100 µM. For the same molecule, the TGI (A549 NSCLC) was > 100 µM, the TGI (A498 renal) was > 100 µM and the TGI (SW-620 colon) was > 100 µM. The TGI (RPMI-8226 leukemia) was > 100 µM.
Cc1nc(N(CCO)CCO)c2sc(=S)n(-c3ccccc3)c2n1 was tested, and the TGI (U251 CNS) was > 100 µM, the TGI (K-562 leukemia) was > 100 µM and the TGI (SK-OV-3 ovarian) was > 100 µM. The TGI (SK-MEL-2 melanoma) was > 100 µM, the TGI (A549 NSCLC) was > 100 µM and the TGI (A498 renal) was > 100 µM. For the same molecule, the TGI (SW-620 colon) was > 100 µM and the TGI (RPMI-8226 leukemia) was > 100 µM.
With NC(=S)N/N=C/c1ccc(OC(=O)COc2ccccc2Cl)cn1 the TGI (OVCAR-4 ovarian) was > 100 µM, the TGI (U251 CNS) was > 100 µM and the TGI (K-562 leukemia) was > 100 µM. For the same molecule, the TGI (HCT-15 colon) was > 100 µM, the TGI (SK-OV-3 ovarian) was > 100 µM and the TGI (SK-MEL-2 melanoma) was > 100 µM. For the same molecule, the TGI (A549 NSCLC) was > 100 µM, the TGI (A498 renal) was > 100 µM and the TGI (SW-620 colon) was > 100 µM. The TGI (RPMI-8226 leukemia) was > 100 µM.
With COc1cc(C2S/C(=C/c3ccccc3)C(=O)N2c2ccccc2Cl)cc(OC)c1OC (stereo not drawn) the TGI (OVCAR-4 ovarian) was > 100 µM, the TGI (U251 CNS) was 55.9 µM and the TGI (HCT-15 colon) was > 100 µM. For the same molecule, the TGI (SK-OV-3 ovarian) was > 100 µM, the TGI (SK-MEL-2 melanoma) was 39.7 µM and the TGI (A549 NSCLC) was > 100 µM. For the same molecule, the TGI (A498 renal) was > 100 µM.
With COC(=O)C1=C(O)C(C(=O)OC)[C@@]2(O)[C@@H](C(=O)OC)CC[C@@H]1[C@@H]2C(=O)OC (stereo partly drawn) the TGI (U251 CNS) was 64.6 µM, the TGI (K-562 leukemia) was > 100 µM and the TGI (HCT-15 colon) was 64.2 µM. The TGI (SK-OV-3 ovarian) was 34.6 µM, the TGI (SK-MEL-2 melanoma) was 49.3 µM and the TGI (A498 renal) was 55.4 µM. The TGI (RPMI-8226 leukemia) was 97.3 µM.
O=C(O)CN=c1c2ccccc2n(O)c2ccccc12 was tested, and the TGI (OVCAR-4 ovarian) was > 100 µM, the TGI (U251 CNS) was > 100 µM and the TGI (K-562 leukemia) was 26.9 µM. For the same molecule, the TGI (HCT-15 colon) was > 100 µM, the TGI (SK-OV-3 ovarian) was > 100 µM and the TGI (SK-MEL-2 melanoma) was > 100 µM. For the same molecule, the TGI (A549 NSCLC) was > 100 µM, the TGI (A498 renal) was > 100 µM and the TGI (SW-620 colon) was > 100 µM. The TGI (RPMI-8226 leukemia) was > 100 µM.
For BrC1=CN2C[n+]3cc(Br)c4ccccc4c3N=C2c2ccccc21, the TGI (OVCAR-4 ovarian) was 20 µM, the TGI (U251 CNS) was 21.9 µM and the TGI (K-562 leukemia) was 39.5 µM. For the same molecule, the TGI (HCT-15 colon) was > 100 µM, the TGI (SK-OV-3 ovarian) was 51.8 µM and the TGI (SK-MEL-2 melanoma) was 22.3 µM. For the same molecule, the TGI (A549 NSCLC) was > 100 µM, the TGI (A498 renal) was 70.9 µM and the TGI (SW-620 colon) was > 100 µM. The TGI (RPMI-8226 leukemia) was 30.5 µM.
For COc1cc(Cc2ccc3c(c2C#N)N(C)c2ccccc2S3)cc(OC)c1OC, the TGI (OVCAR-4 ovarian) was > 100 µM, the TGI (U251 CNS) was > 100 µM and the TGI (K-562 leukemia) was > 100 µM. For the same molecule, the TGI (HCT-15 colon) was 61.3 µM, the TGI (SK-OV-3 ovarian) was > 100 µM and the TGI (SK-MEL-2 melanoma) was > 100 µM. For the same molecule, the TGI (A549 NSCLC) was > 100 µM, the TGI (A498 renal) was > 100 µM and the TGI (SW-620 colon) was > 100 µM. For the same molecule, the TGI (RPMI-8226 leukemia) was > 100 µM.
In the case of C/C([O-])=C(/c1nc(-c2ccc([N+](=O)[O-])o2)no1)[n+]1cc(C)ccc1C, the TGI (OVCAR-4 ovarian) is reported as 63.9 µM, the TGI (U251 CNS) is reported as 21.7 µM and the TGI (K-562 leukemia) is reported as > 51.9 µM. For the same molecule, the TGI (HCT-15 colon) was 22.3 µM, the TGI (SK-OV-3 ovarian) was > 79.3 µM and the TGI (SK-MEL-2 melanoma) was 19.7 µM. For the same molecule, the TGI (A549 NSCLC) was 30.8 µM, the TGI (A498 renal) was 33.8 µM and the TGI (SW-620 colon) was 16.9 µM. The TGI (RPMI-8226 leukemia) was 55.2 µM.
With Cc1ccc(S(=O)(=O)Nc2cc(Sc3ccccc3)c(O)c3ccccc23)cc1 the GI50 (OVCAR-4 ovarian) was 1.59 µM, the TGI (OVCAR-4 ovarian) was 2.95 µM and the GI50 (U251 CNS) was 1.94 µM. The TGI (U251 CNS) was 3.84 µM, the GI50 (K-562 leukemia) was 3.38 µM and the TGI (K-562 leukemia) was 10.7 µM. For the same molecule, the GI50 (HCT-15 colon) was 6.81 µM, the TGI (HCT-15 colon) was 25.1 µM and the GI50 (SK-OV-3 ovarian) was 15.6 µM. For the same molecule, the TGI (SK-OV-3 ovarian) was 29.8 µM, the GI50 (SK-MEL-2 melanoma) was 3.73 µM and the TGI (SK-MEL-2 melanoma) was 16 µM. It also gave a GI50 (A549 NSCLC) of 12.3 µM, a TGI (A549 NSCLC) of 28.5 µM and a GI50 (A498 renal) of 13.1 µM. For the same molecule, the TGI (A498 renal) was 28.8 µM, the GI50 (SW-620 colon) was 3.91 µM and the TGI (SW-620 colon) was 16.2 µM. It also gave a GI50 (RPMI-8226 leukemia) of 3.4 µM and a TGI (RPMI-8226 leukemia) of 22.8 µM.
With COc1cc2nc(N3CCC[C@@H](NC4=CC(=O)c5ccccc5C4=O)C3)nc(N)c2cc1OC the GI50 (OVCAR-4 ovarian) was 1.64 µM, the TGI (OVCAR-4 ovarian) was 3.35 µM and the GI50 (U251 CNS) was 1.86 µM. The TGI (U251 CNS) was 3.46 µM, the GI50 (K-562 leukemia) was 0.427 µM and the TGI (K-562 leukemia) was 2.36 µM. For the same molecule, the GI50 (HCT-15 colon) was 2.31 µM, the TGI (HCT-15 colon) was 6.02 µM and the GI50 (SK-OV-3 ovarian) was 2.03 µM. It also gave a TGI (SK-OV-3 ovarian) of 4.08 µM, a GI50 (A549 NSCLC) of 1.97 µM and a TGI (A549 NSCLC) of 3.8 µM. It also gave a GI50 (A498 renal) of 18.5 µM, a TGI (A498 renal) of 40.9 µM and a GI50 (SW-620 colon) of 1.59 µM. For the same molecule, the TGI (SW-620 colon) was 3.36 µM, the GI50 (RPMI-8226 leukemia) was 2.33 µM and the TGI (RPMI-8226 leukemia) was 5.58 µM.
CCOC(=O)C(=O)Nc1cccc(C)c1C was tested, and the TGI (OVCAR-4 ovarian) was > 100 µM, the TGI (U251 CNS) was > 100 µM and the TGI (K-562 leukemia) was > 100 µM. For the same molecule, the TGI (HCT-15 colon) was > 100 µM, the TGI (SK-OV-3 ovarian) was > 100 µM and the TGI (SK-MEL-2 melanoma) was > 100 µM. For the same molecule, the TGI (A549 NSCLC) was > 100 µM, the TGI (A498 renal) was > 100 µM and the TGI (SW-620 colon) was > 100 µM. For the same molecule, the TGI (RPMI-8226 leukemia) was > 100 µM.
